This note sets out measurements from patent US4563474A, “Phthalimides and thienopyrrols as drugs” (BASF Aktiengesellschaft, priority 1982, dated 1986).

Structures are written as SMILES. Read-outs that look alike come from different tables or passages of the source.

One may read the ED50 as the dose at which the effect has come halfway, by size or by number of responders.

Assay [1] relates to orientation hypermotility. The experiment in a line: Sedative action: reduction of orientation hypermotility induced by a new environment. The note with it: for ED50: po, 0.5 h, read-out: Sedative action (mouse) ED50. Format: in vivo, female NMRI mice. As for the experimental part:
The test substances were administered orally to groups comprising three female NMRI mice each. The orientation hypermotility induced by a new environment is determined photoelectrically, 30 minutes after administration of the substance, over a period of 30 minutes.
The ED50, ie. the dose which produces 50% reduction in orientation hypermotility compared to untreated control animals, was determined.

The subject of assay [2] is reserpine-induced hypothermia. Description: Antidepressant action: inhibition of reserpine-induced hypothermia. Format: in vivo, male mice (Swiss). To be noted: for ED50: po, read-out: Antidepressant action (mouse) ED50. The method, then: Antidepressants produce a dose-dependent inhibition of this hypothermia. The test substances were administered orally 60 minutes before reserpine.

Where [3] appears, read: mouse, administered orally, 30 min after administration, over 30 min, 50% reduction in orientation hypermotility.
Where [4] appears, read: mouse, administered orally 60 minutes before reserpine (2.15 mg/kg s.c.), 50% inhibition of hypothermia.

Take `CC(=CC#N)CN1Cc2ccccc2C1=O` [Example 12, 3-(Phthalimidin-2-yl)-1-cyano-2-methylprop-1-ene]: the ED50 in assay [1] (setting [3]) was found to be 49 mg/kg; in assay [2] (setting [4]) it was 11.4 mg/kg.
With `CN(C)CCCN1c2ccccc2CCc2ccccc21` [Imipramine, reference compound], the median effective dose (ED50) is around 100 mg/kg in assay [1] (Mus musculus) and 6.8 mg/kg in assay [2] (Mus musculus).
Consider `CC(=CC#N)CN1C(=O)c2c(Cl)cccc2S1(=O)=O` [Example 4, 3-(2,3-Dihydro-4-chloro-1,1-dioxido-3-oxo-1,2-benzisothiazol-2-yl)-1-cyano-2-methylprop-1-ene], for which the ED50 in assay [1] (setting [3]) is 52 mg/kg; in assay [2] (setting [4]) it was 3.1 mg/kg.
Regarding `CC(=CC#N)CN1C(=O)c2cc(Cl)ccc2S1(=O)=O` [Example 6, 3-(2,3-Dihydro-5-chloro-1,1-dioxido-3-oxo-1,2-benzisothiazol-2-yl)-1-cyano-2-methylprop-1-ene], the values for the ED50 in assay [1] (setting [3]) and in assay [2] (setting [4]) were 100 mg/kg and 1.1 mg/kg, respectively.
For `CC(=CC#N)CN1C(=O)c2ccccc2C1=O` [Example 11, 3-(Phthalimid-2-yl)-1-cyano-2-methylprop-1-ene] the same measures were 68 mg/kg and 18.9 mg/kg.
For `CC(=CC#N)CCN1C(=O)c2ccccc2C1=O` [Example 18, 4-(Phthalimid-2-yl)-1-cyano-2-methylbut-1-ene] the same measures were 29 mg/kg and 4.5 mg/kg.
Take `O=C1NCCCC1N1C(=O)c2ccccc2S1(=O)=O` (stereo not drawn) [Supidimide, 3-(2,3-dihydro-1,1-dioxido-3-oxo-1,2-benzisothiazol-2-yl)-2-oxopiperidine, reference compound]: the “weak suppressant effect on the central nervous system (in words)” value in assay [1] (known, and also found in the test for sedative action) is listed as “weak suppressant effect on the central nervous system”. For the same compound, the ED50 stood at 277 mg/kg in assay [1] (setting [3]) and 2150 mg/kg in assay [2] (setting [4]). The “antidepressant action (in words)” value in assay [2] (up to the maximum test dose of 2,150 mg/kg, administered orally) was “completely absent”.
Turning to `CC(=CC#N)CN1C(=O)c2ccccc2S1(=O)=O` [Example 1, 3-(2,3-dihydro-1,1-dioxido-3-oxo-1,2-benzisothiazol-2-yl)-1-cyano-2-methylprop-1-ene], the ED50 is 50 mg/kg in assay [1] (setting [3]) and 3.5 mg/kg in assay [2] (setting [4]).
